Test results published in PubChem BioAssay AID1963422 (Molecular Pharmacology Branch, DTP, NCI, 2024).

Tested on: 463943-066-T-J2-PDC complex spheroid growth
Test: Anticancer human tumor 463943-066-T-J2-PDC patient-derived colon adenocarcinoma cell line growth inhibition [Asc]
Conditions: for IC50: curve of first compound; for viability, T/C: stronger effect = lower value
Summary of the method: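 Concentration series start at each agent's clinical Cmax, or at 10 microM when none is established, and drop in half-log steps; agents are applied alone or together to complex spheroids built with HUVEC and hMSC.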

[1] = second compound 0.0316 µM, first compound 0.0316 µM
[2] = second compound 0.0316 µM, first compound 0.1 µM
[3] = second compound 0.0316 µM, first compound 0.316 µM
[4] = second compound 0.0316 µM, first compound 1 µM
[5] = second compound 0.1 µM, first compound 0.0316 µM
[6] = second compound 0.1 µM, first compound 0.1 µM
[7] = second compound 0.1 µM, first compound 0.316 µM
[8] = second compound 0.1 µM, first compound 1 µM
[9] = second compound 0.316 µM, first compound 0.0316 µM
[10] = second compound 0.316 µM, first compound 0.1 µM
[11] = second compound 0.316 µM, first compound 0.316 µM
[12] = second compound 0.316 µM, first compound 1 µM
[13] = second compound 1 µM, first compound 0.0316 µM
[14] = second compound 1 µM, first compound 0.1 µM
[15] = second compound 1 µM, first compound 0.316 µM
[16] = second compound 1 µM, first compound 1 µM
[17] = second compound 3.16 µM, first compound 0.0316 µM
[18] = second compound 3.16 µM, first compound 0.1 µM
[19] = second compound 3.16 µM, first compound 0.316 µM
[20] = second compound 3.16 µM, first compound 1 µM
[21] = second compound 10 µM, first compound 0.0316 µM
[22] = second compound 10 µM, first compound 0.1 µM
[23] = second compound 10 µM, first compound 0.316 µM
[24] = second compound 10 µM, first compound 1 µM
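Further: compound exposure lasted 7 days.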
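Wherever viability, T/C is given: 100% = DMSO vehicle control wells.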

For `C#Cc1c(F)ccc2cc(O)cc(-c3ncc4c(N5CC6CCC(C5)N6)nc(OCC56CCCN5CC(F)C6)nc4c3F)c12` (stereo unspecified) + Cc1c(S(C)(=O)=O)c(-c2cc(F)cc(N3CCN(c4ccc(NS(=O)(=O)c5ccc(NC(CCN6CCC(C(=O)OCCCP(=O)(O)O)CC6)CSc6ccccc6)c(S(=O)(=O)C(F)(F)F)c5)cc4)CC3)c2)c(-c2ccc(Cl)cc2)n1C(C)C, the IC50 (second compound 0.0316 µM) was over 10 µM, the IC50 (second compound 0.1 µM) was over 10 µM and the IC50 (second compound 0.316 µM) was over 10 µM. It also gave an IC50 (second compound 1 µM) of over 10 µM, an IC50 (second compound 3.16 µM) of over 10 µM and an IC50 (second compound 10 µM) of under 0.0316 µM. It also gave a viability, T/C [1] of 96.3%, a viability, T/C [2] of 93.3% and a viability, T/C [3] of 101%. The viability, T/C [4] was 102%, the viability, T/C (second compound 0.0316 µM, first compound 3.16 µM) was 103% and the viability, T/C (second compound 0.0316 µM, first compound 10 µM) was 97.5%. It also gave a viability, T/C [5] of 101%, a viability, T/C [6] of 97.1% and a viability, T/C [7] of 101%. The viability, T/C [8] was 94.1%, the viability, T/C (second compound 0.1 µM, first compound 3.16 µM) was 98% and the viability, T/C (second compound 0.1 µM, first compound 10 µM) was 82.1%. The viability, T/C [9] was 93.4%, the viability, T/C [10] was 92.8% and the viability, T/C [11] was 88.4%. It also gave a viability, T/C [12] of 93.1%, a viability, T/C (second compound 0.316 µM, first compound 3.16 µM) of 97.2% and a viability, T/C (second compound 0.316 µM, first compound 10 µM) of 73.4%. It also gave a viability, T/C [13] of 74.5%, a viability, T/C [14] of 76.5% and a viability, T/C [15] of 80.5%. For the same molecule, the viability, T/C [16] was 80.6%, the viability, T/C (second compound 1 µM, first compound 3.16 µM) was 77.7% and the viability, T/C (second compound 1 µM, first compound 10 µM) was 72.3%. The viability, T/C [17] was 65.3%, the viability, T/C [18] was 64.3% and the viability, T/C [19] was 63.3%. The viability, T/C [20] was 62.1%, the viability, T/C (second compound 3.16 µM, first compound 3.16 µM) was 65.9% and the viability, T/C (second compound 3.16 µM, first compound 10 µM) was 61.3%. For the same molecule, the viability, T/C [21] was 48.9%, the viability, T/C [22] was 47.7% and the viability, T/C [23] was 50.2%. For the same molecule, the viability, T/C [24] was 51.2%, the viability, T/C (second compound 10 µM, first compound 3.16 µM) was 51.2% and the viability, T/C (second compound 10 µM, first compound 10 µM) was 43.9%.

For `CNC(C)C(=O)NC1CN(S(=O)(=O)c2cccc(S(=O)(=O)N3CCC4CCC(C(=O)NC(c5ccccc5)c5ccccc5)N4C(=O)C(NC(=O)C(C)NC)C3)c2)CCC2CCC(C(=O)NC(c3ccccc3)c3ccccc3)N2C1=O` (stereo unspecified) + Cc1c(S(C)(=O)=O)c(-c2cc(F)cc(N3CCN(c4ccc(NS(=O)(=O)c5ccc(NC(CCN6CCC(C(=O)OCCCP(=O)(O)O)CC6)CSc6ccccc6)c(S(=O)(=O)C(F)(F)F)c5)cc4)CC3)c2)c(-c2ccc(Cl)cc2)n1C(C)C, the IC50 (second compound 0.0316 µM) was over 1 µM, the IC50 (second compound 0.1 µM) was over 1 µM and the IC50 (second compound 0.316 µM) was over 1 µM. It also gave an IC50 (second compound 1 µM) of over 1 µM, an IC50 (second compound 3.16 µM) of over 1 µM and an IC50 (second compound 10 µM) of 0.368 µM. The viability, T/C (second compound 0.0316 µM, first compound 0.00316 µM) was 99.7%, the viability, T/C (second compound 0.0316 µM, first compound 0.01 µM) was 97.5% and the viability, T/C [1] was 97.2%. The viability, T/C [2] was 99.9%, the viability, T/C [3] was 97.6% and the viability, T/C [4] was 80.7%. For the same molecule, the viability, T/C (second compound 0.1 µM, first compound 0.00316 µM) was 100%, the viability, T/C (second compound 0.1 µM, first compound 0.01 µM) was 91.6% and the viability, T/C [5] was 96.6%. The viability, T/C [6] was 94.4%, the viability, T/C [7] was 98.8% and the viability, T/C [8] was 74%. It also gave a viability, T/C (second compound 0.316 µM, first compound 0.00316 µM) of 88.6%, a viability, T/C (second compound 0.316 µM, first compound 0.01 µM) of 89.3% and a viability, T/C [9] of 88.2%. It also gave a viability, T/C [10] of 87.4%, a viability, T/C [11] of 93.2% and a viability, T/C [12] of 70.6%. For the same molecule, the viability, T/C (second compound 1 µM, first compound 0.00316 µM) was 82.8%, the viability, T/C (second compound 1 µM, first compound 0.01 µM) was 77% and the viability, T/C [13] was 77.8%. It also gave a viability, T/C [14] of 83.8%, a viability, T/C [15] of 76.8% and a viability, T/C [16] of 67.2%. For the same molecule, the viability, T/C (second compound 3.16 µM, first compound 0.00316 µM) was 65.8%, the viability, T/C (second compound 3.16 µM, first compound 0.01 µM) was 77.3% and the viability, T/C [17] was 66%. The viability, T/C [18] was 68.9%, the viability, T/C [19] was 70.7% and the viability, T/C [20] was 48.2%. It also gave a viability, T/C (second compound 10 µM, first compound 0.00316 µM) of 52.3%, a viability, T/C (second compound 10 µM, first compound 0.01 µM) of 49.5% and a viability, T/C [21] of 52%. The viability, T/C [22] was 51.3%, the viability, T/C [23] was 52.5% and the viability, T/C [24] was 40.8%.

`Cc1nc(N2CCC3(CC2)COC(C)C3N)c(CO)nc1Sc1ccnc(N)c1Cl` (stereo unspecified) + Cc1c(S(C)(=O)=O)c(-c2cc(F)cc(N3CCN(c4ccc(NS(=O)(=O)c5ccc(NC(CCN6CCC(C(=O)OCCCP(=O)(O)O)CC6)CSc6ccccc6)c(S(=O)(=O)C(F)(F)F)c5)cc4)CC3)c2)c(-c2ccc(Cl)cc2)n1C(C)C showed an IC50 (second compound 0.0316 µM) of over 3 µM, an IC50 (second compound 0.1 µM) of over 3 µM and an IC50 (second compound 0.316 µM) of over 3 µM. The IC50 (second compound 1 µM) was over 3 µM, the IC50 (second compound 3.16 µM) was 0.185 µM and the IC50 (second compound 10 µM) was under 0.00949 µM. It also gave a viability, T/C (second compound 0.0316 µM, first compound 0.00949 µM) of 106%, a viability, T/C (second compound 0.0316 µM, first compound 0.03 µM) of 86.8% and a viability, T/C (second compound 0.0316 µM, first compound 0.0949 µM) of 87.3%. It also gave a viability, T/C (second compound 0.0316 µM, first compound 0.3 µM) of 87.3%, a viability, T/C (second compound 0.0316 µM, first compound 0.949 µM) of 77.8% and a viability, T/C (second compound 0.0316 µM, first compound 3 µM) of 63.9%. The viability, T/C (second compound 0.1 µM, first compound 0.00949 µM) was 93.1%, the viability, T/C (second compound 0.1 µM, first compound 0.03 µM) was 87.2% and the viability, T/C (second compound 0.1 µM, first compound 0.0949 µM) was 90.7%. The viability, T/C (second compound 0.1 µM, first compound 0.3 µM) was 82.4%, the viability, T/C (second compound 0.1 µM, first compound 0.949 µM) was 75.1% and the viability, T/C (second compound 0.1 µM, first compound 3 µM) was 58.1%. The viability, T/C (second compound 0.316 µM, first compound 0.00949 µM) was 84%, the viability, T/C (second compound 0.316 µM, first compound 0.03 µM) was 85.1% and the viability, T/C (second compound 0.316 µM, first compound 0.0949 µM) was 78.5%. The viability, T/C (second compound 0.316 µM, first compound 0.3 µM) was 71.1%, the viability, T/C (second compound 0.316 µM, first compound 0.949 µM) was 65.8% and the viability, T/C (second compound 0.316 µM, first compound 3 µM) was 52.4%. The viability, T/C (second compound 1 µM, first compound 0.00949 µM) was 77.2%, the viability, T/C (second compound 1 µM, first compound 0.03 µM) was 73.7% and the viability, T/C (second compound 1 µM, first compound 0.0949 µM) was 66%. It also gave a viability, T/C (second compound 1 µM, first compound 0.3 µM) of 67.6%, a viability, T/C (second compound 1 µM, first compound 0.949 µM) of 64.9% and a viability, T/C (second compound 1 µM, first compound 3 µM) of 50.7%. It also gave a viability, T/C (second compound 3.16 µM, first compound 0.00949 µM) of 57%, a viability, T/C (second compound 3.16 µM, first compound 0.03 µM) of 58.5% and a viability, T/C (second compound 3.16 µM, first compound 0.0949 µM) of 51%. For the same molecule, the viability, T/C (second compound 3.16 µM, first compound 0.3 µM) was 49.2%, the viability, T/C (second compound 3.16 µM, first compound 0.949 µM) was 41.4% and the viability, T/C (second compound 3.16 µM, first compound 3 µM) was 36.5%. The viability, T/C (second compound 10 µM, first compound 0.00949 µM) was 48.7%, the viability, T/C (second compound 10 µM, first compound 0.03 µM) was 44.8% and the viability, T/C (second compound 10 µM, first compound 0.0949 µM) was 41.4%. For the same molecule, the viability, T/C (second compound 10 µM, first compound 0.3 µM) was 39.4%, the viability, T/C (second compound 10 µM, first compound 0.949 µM) was 35.9% and the viability, T/C (second compound 10 µM, first compound 3 µM) was 27.6%.
